Test results taken from patent publication US7166611B2, “Pharmaceutical compositions having appetite suppressant activity” (priority 1997, dated 2007).

How the values were obtained:
[1] = system: young female rats; experiment: Oral Dose Anorectic Test, three consecutive days; type: in vivo, rat
Description: Animals were allocated to treatment groups using randomisation tables. Each treatment group consisted of three animals, with 6 animals in the control group. The test sample was dosed to young female rats with body weight 100–150 g at acclimatisation, for three consecutive days. Animals were identified by means of metallic ear tags and KMnO4 skin markings for easy identification. Animals were housed individually in standard rodent polycarbonate cages, and water and powdered commercial rodent pellets were available ad libitum. Water and food intakes were measured and calculated for each day. In order to find the minimum effective dose of the test sample, five doses were tested. Treatment was by oral gavage, with the test sample suspended in potato starch.
The test substance was compound (1), a white granular powder prepared from an extract from plant material in accordance with the invention, and the measured quantity of the test sample was mixed with prepared potato starch and dosed. Mixing with potato starch took place immediately before dosing on each day. Before withdrawal of the dosing volume for each animal, the suspensions were mixed thoroughly using a Vortex.
A range of five doses was tested, with a control group 15 receiving only the carrier substance.

[2] = system: rats; experiment: Bioassay of chromatographic fractions for appetite suppressant activity; type: in vivo, rat; settings: bioassay of fractions from silica gel chromatography
Text: The extract may be prepared from plant material such as the stems and roots of said plants of the genus Trichocaulon or of the genus Hoodia. The genus Trichocaulon and the genus Hoodia include succulent plants growing in arid regions such as are found in Southern Africa. In one application of the invention, the active appetite suppressant extract is obtained from the species Trichocaulon piliferum. The species Trichocaulon officinale may also be used to provide an active appetite suppressant extract. In another application of the invention, the active appetite suppressant extract may be obtained from the species Hoodia currorii, Hoodia gordonii or Hoodia lugardii.
The partially purified active extract may be dissolved in methanol, and may be further fractionated by column chromatography, employing silica gel as an adsorption medium and a chloroform/30% methanol mixture as an eluent. A plurality of different fractions may be obtained, and each may be evaluated, by suitable bioassaying procedures, to determine the appetite suppressant activity thereof.
A fraction having appetite suppressant activity may preferably be further fractionated such as by column chromatography using silica gel as an adsorption medium and a 9:1 chloroform:methanol solvent, and the resultant sub-fractions bioassayed for their appetite suppressant activity. […]

C/C=C(\C)C(=O)O[C@@H]1CC2C(CC=C3C[C@@H](OC4CC(OC)C(OC5CC(OC)C(OC6OC(C)C(O)C(OC)C6O)C(C)O5)C(C)O4)CC[C@@]32C)[C@@]2(O)CC[C@H](C(C)=O)[C@@]12C (stereo partly drawn) [Compound (1), 3-0-[-β-D-thevetopyranosyl-(1→4)-β-D-cymaropyranosyl-(1→4)-β-D-cymaropyranosyl]-12β-0-tigloyloxy-14-hydroxy-14β-pregn-5-en-20-one]
body mass ([1]; 12.50 mg/kg group, oral): Actual loss in body mass
health of the animals ([1]; 6.25–50.00 mg/kg oral gavage, three consecutive days): Treatment did not affect the health of the animals
liver at post-mortem examination ([1]; all dose groups 6.25–50.00 mg/kg oral): friable livers
mean body mass gain over the total study period ([1]; all dose groups 6.25–50.00 mg/kg oral, three consecutive days): significantly reduced mean body mass gain
Respiratory rate ([1]; any dose group 6.25–50.00 mg/kg oral): in none of the animals in any dose group was significantly effected
water consumption ([1]; higher dose groups, oral, three consecutive days): increased water consumption
food intake and body mass gain ([1]; lowest dose group 6.25 mg/kg oral): Reduced food intake and reduced body mass gain
appetite suppressive action ([1]; lowest dose tested 6,25 mg/kg oral): has appetite suppressive action
appetite suppressant activity [2]: found to have appetite suppressing activity
